Source: patent US11207320B2, “Compositions and methods for cancer expressing PDE3A or SLFN12” (The Broad Institute, Inc., priority 2015, dated 2021)

Test system: 766 cancer cell lines
Experiment: Large-scale cell-line viability measurements (766 cancer cell lines, 72 h, AUC)
Type: cell-based, human
Conditions: 72 hours
Protocol: Cell lines were treated for 72 hours with concentrations ranging from 66.4 μM-2 nM in 2-fold step dilutions.
To characterize cellular sensitivity to DNMDP further, 766 genomically characterized cancer cell lines were screened for DMNDP sensitivity at concentrations ranging from 66.4 μM to 2 nM in 2-fold dilution steps for 72 hours. From these cell lines, 22 cell lines were categorized as sensitive with a robust Z-score lower than −4, which represented multiple lineages including multiple melanoma cell lines, amongst others (Table 1).
The sensitivity of […] cancer cell lines (CCLs) was measured drawn from 23 different lineages to DNMDP. Each cell line was plated in its preferred media in white opaque 1536-plates at a density of 500 cells/well. After incubating overnight, DNMDP was added by acoustic transfer at 16 concentrations ranging from 66.4 μM-2 nM in 2-fold steps in duplicate (Labcyte Echo 555, Labcyte Inc., Sunnyvale, Calif.). After 72 hours treatment, cellular ATP levels were measured as a surrogate for viability (CELLTITERGLO®, Promega Corporation, Madison, Wis.) according to manufacturer's protocols using a ViewLux Microplate Imager (PerkinElmer, Waltham, Mass.) and normalized to background (media-only) and vehicle (DMSO)-treated control wells.
Concentration response curves were fit using nonlinear fits to 2- or 3-parameter sigmoid functions through all 16 concentrations with the low-concentration asymptote set to the DMSO-normalized value, and an optimal 8-point dose curve spanning the range of compound-sensitivity was identified. The area under the 8-point dose curve (AUC) was computed by numeric integration as a metric for sensitivity for further analysis. Similar sensitivity measurements have been obtained for a collection of 480 other compounds, enabling analyses that identify cell lines responding uniquely to DNMDP (see Broad Institute Cancer Therapeutics Response Portal, a dataset to identify comprehensively relationships between genetic and lineage features of human cancer cell lines and small-molecule sensitivities for complete list of compounds).

[1] = MOLM6 (HAEMATOPOIETIC AND LYMPHOID TISSUE)
[2] = MOLT13 (HAEMATOPOIETIC AND LYMPHOID TISSUE)
[3] = MV411 (HAEMATOPOIETIC AND LYMPHOID TISSUE)
[4] = NALM6 (HAEMATOPOIETIC AND LYMPHOID TISSUE)
[5] = NB4 (HAEMATOPOIETIC AND LYMPHOID TISSUE)
[6] = NCO2 (HAEMATOPOIETIC AND LYMPHOID TISSUE)
[7] = OCIAML2 (HAEMATOPOIETIC AND LYMPHOID TISSUE)
[8] = OCILY19 (HAEMATOPOIETIC AND LYMPHOID TISSUE)
[9] = PECAPJ15 (UPPER AERODIGESTIVE TRACT)
[10] = PF382 (HAEMATOPOIETIC AND LYMPHOID TISSUE)
[11] = RPMI8402 (HAEMATOPOIETIC AND LYMPHOID TISSUE)
[12] = SCC4 (UPPER AERODIGESTIVE TRACT)
[13] = SNU1214 (UPPER AERODIGESTIVE TRACT)
[14] = U118MG (CENTRAL NERVOUS SYSTEM)
[15] = U266B1 (HAEMATOPOIETIC AND LYMPHOID TISSUE)
[16] = U937 (HAEMATOPOIETIC AND LYMPHOID TISSUE)

## CCN(CC)c1ccc(C2=NNC(=O)CC2C)cc1[N+](=O)[O-] (centres unmarked) [DNMDP, 6-(4-(diethylamino)-3-nitrophenyl)-5-methyl-4,5-dihydropyridazin-3(2H)-one]
LU99 (LUNG)
  Robust Z-score: −0.8744
LXF289 (LUNG)
  DNMDP AUC: 5.734
  Robust Z-score: −0.9454
MALME3M (SKIN)
  DNMDP AUC: 6.112
  Robust Z-score: −0.5486
MCF7 (BREAST)
  DNMDP AUC: 6.1256
  Robust Z-score: −0.5343
MEWO (SKIN)
  DNMDP AUC: 5.738
  Robust Z-score: −0.9412
MKN7 (STOMACH)
  DNMDP AUC: 6.1453
  Robust Z-score: −0.5136
[1]
  DNMDP AUC: 6.0447
  Robust Z-score: −0.6192
[2]
  DNMDP AUC: 6.084
  Robust Z-score: −0.578
[3]
  DNMDP AUC: 5.6905
  Robust Z-score: −0.991
[4]
  DNMDP AUC: 5.7872
  Robust Z-score: −0.8895
[5]
  DNMDP AUC: 6.219
  Robust Z-score: −0.4363
NCIH23 (LUNG)
  DNMDP AUC: 6.1854
  Robust Z-score: −0.4716
NCIH1184 (LUNG)
  DNMDP AUC: 6.1776
  Robust Z-score: −0.4797
NCIH1355 (LUNG)
  DNMDP AUC: 6.171
  Robust Z-score: −0.4867
NCIH1435 (LUNG)
  DNMDP AUC: 5.9756
  Robust Z-score: −0.6918
NCIH1563 (LUNG)
  DNMDP AUC: 1.0887
  Robust Z-score: −5.821
NCIH1793 (LUNG)
  DNMDP AUC: 6.2189
  Robust Z-score: −0.4364
NCIH2009 (LUNG)
  DNMDP AUC: 5.7594
  Robust Z-score: −0.9187
NCIH2122 (LUNG)
  DNMDP AUC: 1.3105
  Robust Z-score: −5.588
NCIH2141 (LUNG)
  DNMDP AUC: 5.7218
  Robust Z-score: −0.9582
[6]
  DNMDP AUC: 5.7088
  Robust Z-score: −0.9718
[7]
  DNMDP AUC: 5.8945
  Robust Z-score: −0.7769
[8]
  DNMDP AUC: 6.1512
  Robust Z-score: −0.5075
ONCODG1 (OVARY)
  DNMDP AUC: 5.8296
  Robust Z-score: −0.845
PC14 (LUNG)
  DNMDP AUC: 6.2003
  Robust Z-score: −0.4559
[9]
  DNMDP AUC: 5.789
  Robust Z-score: −0.8876
[10]
  DNMDP AUC: 5.8519
  Robust Z-score: −0.8216
RERFLCAD1 (LUNG)
  DNMDP AUC: 6.1862
  Robust Z-score: −0.4707
RKN (SOFT TISSUE)
  DNMDP AUC: 6.1579
  Robust Z-score: −0.5004
[11]
  DNMDP AUC: 5.9827
  Robust Z-score: −0.6843
RVH421 (SKIN)
  DNMDP AUC: 1.4556
  Robust Z-score: −5.436
[12]
  DNMDP AUC: 6.0502
  Robust Z-score: −0.6135
SKCO1 (LARGE INTESTINE)
  DNMDP AUC: 5.688
  Robust Z-score: −0.9936
SKLU1 (LUNG)
  DNMDP AUC: 6.0109
  Robust Z-score: −0.6547
SKMEL3 (SKIN)
  DNMDP AUC: 1.2215
  Robust Z-score: −5.682
SKMEL5 (SKIN)
  DNMDP AUC: 5.9639
  Robust Z-score: −0.7041
SKNBE2 (AUTONOMIC GANGLIA)
  DNMDP AUC: 5.7717
  Robust Z-score: −0.9058
SKNSH (AUTONOMIC GANGLIA)
  DNMDP AUC: 5.8424
  Robust Z-score: −0.8316
SNU119 (OVARY)
  DNMDP AUC: 6.1473
  Robust Z-score: −0.5115
SNU620 (STOMACH)
  DNMDP AUC: 6.1039
  Robust Z-score: −0.5571
SNU869 (BILIARY TRACT)
  DNMDP AUC: 5.7543
  Robust Z-score: −0.9241
[13]
  DNMDP AUC: 6.2071
  Robust Z-score: −0.4488
SNU1272 (KIDNEY)
  DNMDP AUC: 6.0226
  Robust Z-score: −0.6424
SUIT2 (PANCREAS)
  DNMDP AUC: 5.8956
  Robust Z-score: −0.7757
T3M10 (LUNG)
  DNMDP AUC: 6.1867
  Robust Z-score: −0.4702
TE8 (OESOPHAGUS)
  DNMDP AUC: 6.2119
  Robust Z-score: −0.4437
TE125T (SOFT TISSUE)
  DNMDP AUC: 5.744
  Robust Z-score: −0.9349
TUHR14TKB (KIDNEY)
  DNMDP AUC: 5.8451
  Robust Z-score: −0.8287
[14]
  DNMDP AUC: 6.1481
  Robust Z-score: −0.5107
[15]
  DNMDP AUC: 6.1906
  Robust Z-score: −0.4661
[16]
  DNMDP AUC: 6.1777
  Robust Z-score: −0.4796
